The record followed here is ChEMBL document CHEMBL1143726, “Indole alkaloids produced by a marine fungus isolate of Penicillium janthinellum Biourge” (2007).

One experiment deals with C1 41. In words: Cytotoxicity against mouse JB6 C1 41 cells up to 200 uM by MTS assay. It is filed as functional, cell-based. A general note: Tetrazolium dyes change colour on reduction, which living cells bring about.
Another experiment relates to HL-60. Put plainly: Induction of apoptosis in human HL60 cells at 100 uM after 24 hrs by flow cytometry relative to control. The class given is functional. For orientation: In flow cytometry, cells or beads pass a laser one at a time.
A short description of experiment [1]: Inhibition of EGF-induced malignant transformation of mouse JB6 C1 41 cells in soft agar. The class given is functional.

Active and inactive are the calls of the source. The rule behind the calls is not given here.

For `CC(C)=CCc1cc2[nH]c3c(c2cc1CC=C(C)C)C[C@@H]1CC[C@@]2(O)C4=CC(=O)[C@@H]5O[C@@]4(CC[C@]2(C)[C@@]31C)OC5(C)C`, the result in the experiment on C1 41 was inactive.
Turning to `CC1(C)C=C2c3cc4[nH]c5c(c4cc3C[C@@H]2C(C)(C)O1)C[C@@H]1CC[C@@]2(O)C3=CC(=O)[C@@H]4O[C@@]3(CC[C@]2(C)[C@@]51C)OC4(C)C` [SHEARININE A], in the experiment with C1 41, the result was inactive. Besides, the Activity in the experiment with HL-60 amounted to 10%.
Regarding `CC1(C)C=C2c3cc4[nH]c5c(c4cc3[C@@H](O)[C@@H]2C(C)(C)O1)C[C@@H]1CC[C@@]2(O)C3=CC(=O)[C@@H]4O[C@@]3(CC[C@]2(C)[C@@]51C)OC4(C)C` [SHEARININE D], the result in the experiment with C1 41 was inactive. Besides, in the experiment with HL-60, the Activity was found to be 39%.
For the compound `CC1(C)C=C2c3cc4[nH]c5c(c4cc3[C@H](O)[C@@H]2C(C)(C)O1)C[C@@H]1CC[C@@]2(O)C3=CC(=O)[C@@H]4O[C@@]3(CC[C@]2(C)[C@@]51C)OC4(C)C` [SHEARININE E], in the experiment with C1 41, the outcome was inactive. In the experiment on HL-60, this compound yielded an Activity of 34%. The compound also showed an INCC50 in experiment [1] of 13 µM.
